One assay relates to mPVR. The experiment in a line: Rescue of mouse CD8+ T-cell proliferation in the presence of recombinant mPVR (IL-2 ELISA readout). The class given is cell-based. The following applies: mouse CD8+ T cells, anti-CD3 + mouse PVR, anti-TIGIT antibody = 100%; for Percent rescue of CD8+ T-cell proliferation at 100 nM mPVR based assay: 100 nM compound; for Percent rescue of CD8+ T-cell proliferation mPVR based assay: 1000 nM compound. An excerpt:
96-well plates, Corning; RPMI, Cat No. R6504, Sigma; Easy Sep magnet, Cat No. 18000, Stem Cell; Easy Sep Mouse CD8 T Cell isolation kit, Cat No. 19853, Stem Cell; Corning® cell strainer, (70 μm) Cat No. 431751, Corning; Purified anti-mouse CD3 Abs, Cat No. 100201, Biolegend; Recombinant mouse PVR, Cat No. 6909-CD-050, R&D Systems; Recombinant mouse anti-TIGIT Ab, Cat No. 142101, Biolegend; FBS, Cat No. SH30070.03, Hyclone; Mouse IL-2 ELISA Kit, R&D System Cat no DY402; Mouse IFN-γ ELISA Kit R&D Systems Cat no. DY485; Sterile PBS; FicollHistopaque, Cat No. 10831-6X100ML, Sigma
Spleen was collected from C57BL/6 male mice with 6-8 weeks of age. Splenocytes were isolated by slowly crushing the spleen between the sterile glass slides in RPMI+10% FBS and passing it through the 70 μm strainer. Cell suspension was centrifuged at 912×g for 10 minutes at room temperature and discarded the supernatant. Splenocytes were resuspended in RPMI+10% FBS (Complete RPMI). Resuspended splenocytes were overlaid on Ficoll Histopaque-1083 in a 50 ml Tarson tubes. Overlaid cells were centrifuged at 584×g for 30 minutes at room temperature without break. A clear buffy coat was carefully aspirated into sterile PBS. Isolated cells were washed using PBS and resuspended in complete RPMI medium to get a suspension of about 5×10^7 cells/ml. Mouse CD8^+ T cell were isolated by using EasySep Mouse CD8+ T Cell Isolation kit, as per manufacturers instruction.
96-well cell culture plate was coated with Purified anti-mouse CD3, 1 μg/mL (50 μL/well) and Recombinant Mouse PVR Fe Chimera, 0.5 μg/mL (50 ul/well) for 4 hours at 37° C. After 4 hours, the coated plate was washed with sterile PBS. Mouse CD8+ T cells isolated from spleen were added at 0.2 million/well ([…]) concentration into a 96-well cell culture plate. Test compound at various concentrations prepared in water or DMSO was added in respective wells (20 μL/well) so as to make the total volume 200 μL/well. The plates were incubated in 37° C. CO2 incubator for 3 days. On the 3rd day, cell supernatant was collected to determine cytokine levels (IL-2 or IFN-7) using ELISA. The extent of CD8+ T cell proliferation in presence or absence of test compound was measured by analysing the amount of IL-2 or IFN-7 in the culture supernatants using mouse IL-2 or IFN-7 ELISA kits as per manufacture instructions. Recombinant mouse anti-TIGIT antibody was used as positive control to determine the increased proliferation of CD8+ T cells.
Percent CD8+ T cell proliferation was analysed by measuring IL-2 levels using IL-2 ELISA kit and percent rescue of CD8+ T cell by test compound was estimated after deduction of % background proliferation value and normalising to % stimulated CD8+ T cell proliferation by anti-TIGIT antibody (positive control) as 100%.

A further assay concerns the target T1, PD-L1 (Mus musculus, UniProt Q9EP73).
T1 construct: Fc (Fc chimera); purchased R&D Systems 1019-B7-100
The experiment in a line: Rescue of mouse splenocyte proliferation in the presence of recombinant PD-L1 (CFSE proliferation assay). The class given is cell-based. The following applies: 100 nM compound; anti-CD3/CD28 stimulated mouse splenocytes + PD-L1; stimulated splenocytes = 100%; read-out: Percent rescue of splenocyte proliferation at 100 nM PD-L1 based assay. Here is the method:
Recombinant mouse PD-L1 (rm-PDL-1, cat no: 1019-B7-100; R&D Systems) were used as the source of PD-L1.
Mouse splenocytes harvested from 6-8 weeks old C57 BL6 mice; RPMI 1640 (GIBCO, Cat #11875); DMEM with high glucose (GIBCO, Cat #D6429); Fetal Bovine Serum [Hyclone, Cat #SH30071.03]; Penicillin (10000 unit/mL)-Streptomycin (10,000 μg/mL) Liquid (GIBCO, Cat #15140-122); MEM Sodium Pyruvate solution 100 mM (100×), Liquid (GIBCO, Cat #11360); Nonessential amino acid (GIBCO, Cat #11140); L-Glutamine (GIBCO, Cat #25030); Anti-CD3 antibody (eBiosciences—16-0032); Anti-CD28 antibody (eBiosciences—16-0281); ACK lysis buffer (1 mL) (GIBCO, Cat #-A10492); Histopaque (density-1.083 gm/mL) (SIGMA 10831); Trypan blue solution (SIGMA-T8154); 2 mL Norm Ject Luer Lock syringe-(Sigma 2014-12); 40 μm nylon cell strainer (BD FALCON 35230); Hemacytometer (Bright line-SIGMA Z359629); FACS Buffer (PBS/0.1% BSA): Phosphate Buffered Saline (PBS) pH 7.2 (HiMedia TS1006) with 0.1% Bovine Serum Albumin (BSA) (SIGMA A7050) and sodium azide (SIGMA 08591); 5 mM stock solution of CFSE: CFSE stock solution was prepared by diluting lyophilized CFSE with 180 μL of Dimethyl sulfoxide (DMSO C2H6SO, SIGMA-D-5879) and aliquoted in to tubes for further use. Working concentrations were titrated from 10 μM to 1 μM. (eBioscience-650850-85); 0.05% Trypsin and 0.02% EDTA (SIGMA 59417C); 96-well format ELISA plates (Corning CLS3390); BD FACS caliber (E6016); Recombinant mouse B7-H1/PDL1 Fc Chimera, (rm-PD-L1 cat no: 1019-B7-100).
Splenocytes harvested in a 50 mL falcon tube by mashing mouse spleen in a 40 μm cell strainer were further treated with 1 mL ACK lysis buffer for 5 min at room temperature. After washing with 9 mL of RPMI complete media, cells were re-suspended in 3 mL of 1×PBS in a 15 mL tube. 3 mL of Histopaque was added carefully to the bottom of the tube without disturbing overlaying splenocyte suspension. After centrifuging at 800×g for 20 min at room temperature, the opaque layer of splenocytes was collected carefully without disturbing/mixing the layers. Splenocytes were washed twice with cold 1×PBS followed by total cell counting using Trypan Blue exclusion method and used further for cell based assays.
Splenocytes were cultured in RPMI complete media (RPMI+10% fetal bovine serum+1 mM sodium pyruvate+10,000 units/mL penicillin and 10,000 μg/mL streptomycin) and maintained in a CO2 incubator with 5% CO2 at 37° C.
CFSE is a dye that passively diffuses into cells and binds to intracellular proteins. 1×10^6 cells/mL of harvested splenocytes were treated with 5 μM of CFSE in pre-warmed 1×PBS/0.1% BSA solution for 10 min at 37° C. Excess CFSE was quenched using 5 volumes of ice-cold culture media to the cells and incubated on ice for 5 min. CFSE labelled splenocytes were further given three washes with ice cold complete RPMI media. CFSE labelled 1×10^5 splenocytes added to wells containing either MDA-MB231 cells (1×10^5 cells cultured in high glucose DMEM medium) or recombinant human PDL-1 (100 ng/mL) and test compounds. Splenocytes were stimulated with anti-mouse CD3 and anti-mouse CD28 antibody (1 μg/mL each), and the culture was further incubated for 72 h at 37° C. with 5% CO2. Cells were harvested and washed thrice with ice cold FACS buffer and % proliferation was analysed by flow cytometry with 488 nm excitation and 521 nm emission filters.
Percent splenocyte proliferation was analysed using cell quest FACS program and percent rescue of splenocyte proliferation by compound was estimated after deduction of % background proliferation value and normalising to % stimulated splenocyte proliferation (positive control) as 100%. • Stimulated splenocytes: Splenocytes+anti-CD3/CD28 stimulation • Background proliferation: Splenocytes+anti-CD3/CD28+PD-L1 • Compound proliferation: Splenocytes+anti-CD3/CD28+PD-L1+Compound • Compound effect is examined by adding required conc. of compound to anti-CD3/CD28 stimulated splenocytes in presence of ligand (PDL-1).

Assay [1] relates to CT26 syngeneic colon adenocarcinoma. The experiment in a line: Efficacy study in the CT-26 syngeneic (Balb/c male) mouse tumor model. The class given is in vivo. The following applies: 14 days, CT26 tumor bearing mice. How it is done:
The objective of this study was to evaluate anti-tumor activity of Compound 19 in a CT26 syngeneic colon adenocarcinoma model.
CT26 cell line was procured from ATCC, maintained and stored at ADTL-Bangalore cell line repository. One vial of CT26 cell line was thawed and revived in T-150 cm^2 flask with RPMI medium supplemented with 10% FBS (Gibco), 10 mM 4-(2-hydroxyethyl)-1-piperazineethanesulfonic acid (HEPES), 1 mM sodium pyruvate, 4.5 g/L Glucose, 1% penicillin streptomycin (Sigma) and 1.5 g/L sodium bicarbonate. The flask with CT26 cells at cell density 0.25 million/ml was incubated at 37±1° C. incubator supplied with 5% carbon dioxide. Cell expansion was carried out in T-150 cm^2 flasks and cell density was maintained between 0.25 […], with cell splitting every alternate day. […] Supernatant was discarded and cell pellets were suspended in media and counted using hemocytometer. […]
When the mean tumor volumes reached approximately 30±5 mm^3, the animals were randomized based on tumor volumes into five groups (G1 to G5) of ten animals (N=10) each as mentioned below. The treatment was continued for a period of 14 days after which the overall efficacy and tolerability were evaluated based on tumor volume and body weight changes observed during the treatment period. […]

Structures are written as SMILES.

T1 sequence (Q9EP73 19-238 limits assumed): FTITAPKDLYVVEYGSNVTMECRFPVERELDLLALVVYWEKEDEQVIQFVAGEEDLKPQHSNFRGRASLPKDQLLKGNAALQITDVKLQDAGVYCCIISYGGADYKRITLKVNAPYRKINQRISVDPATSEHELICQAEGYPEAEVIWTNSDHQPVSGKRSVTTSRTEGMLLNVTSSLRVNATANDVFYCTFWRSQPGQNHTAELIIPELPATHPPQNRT

With `CC(O)[C@H](NC(=O)NCc1nc([C@@H](N)CC(=O)O)no1)C(=O)O` (stereo partly shown) [Compound 2], in the assay on mPVR, the “Percent rescue of CD8+ T-cell proliferation at 100 nM mPVR based assay” value (from here on “Percent rescue … at 100 nM mPVR based assay”) was determined as 14%. In addition, on PD-L1, the activation at 0.1 µM was found to be 84%.

As to `CC(O)[C@H](NC(=O)N[C@@H](Cc1ccc(O)cc1)C(=O)O)c1nc([C@@H](N)Cc2c[nH]cn2)no1` (stereo partly shown) [Compound 3], the “Percent rescue … at 100 nM mPVR based assay” value in the assay with mPVR amounted to 59%. Besides, the activation at 0.1 µM at PD-L1 amounted to 11%.

In the case of `CC(O)[C@H](N)c1noc([C@@H](N)Cc2ccccc2)n1` (stereo partly shown) [Compound 16], the “Percent rescue of CD8+ T-cell proliferation mPVR based assay” value in the assay with mPVR was 72 (@ 1000 nM) %.

As to `N[C@@H](CCC(=O)O)c1noc([C@H](Cc2ccc(O)cc2)NC(=O)N[C@@H](Cc2ccccc2)C(=O)O)n1` [Compound 4], the activation at 0.1 µM on PD-L1 stood at 22%.

On to `CC(C)[C@H](N)c1noc([C@@H](NC(=O)N[C@@H](CCC(N)=O)C(=O)O)C(C)O)n1` (stereo partly shown) [Compound 5], for which, in the assay with mPVR, the “Percent rescue of CD8+ T-cell proliferation mPVR based assay” value was “(17 @ 1000 nM) %”. The activation at 0.1 µM on PD-L1 was determined as 27%.

Consider `CCC(C)[C@H](NC(=O)N[C@@H](CS)c1nc([C@@H](N)Cc2ccccc2)no1)C(=O)O` (stereo partly shown) [Compound 6], for which the activation at 0.1 µM on PD-L1 worked out at 15%.

Take `CC(O)[C@H](N)c1noc([C@@H](NC(=O)N[C@@H](Cc2ccccc2)C(=O)O)C(C)O)n1` (stereo partly shown) [Compound 9]: the “Percent rescue … at 100 nM mPVR based assay” value in the assay on mPVR stood at 56.9%.

`CC(O)[C@H](N)c1noc([C@H](Cc2ccc(O)cc2)NC(=O)N2CCC[C@H]2C(=O)O)n1` (stereo partly shown) [Compound 19]: the tumor growth inhibition in assay [1] (10 mg/kg qd oral) amounted to 42%; in assay [1] (30 mg/kg qd oral, statistically significant compared to vehicle) it was 53%. Also, the “Percent rescue … at 100 nM mPVR based assay” value with mPVR came out at 72%. The activation at 0.1 µM on PD-L1 came out at 99%.

Consider `N[C@@H](Cc1ccc(O)cc1)c1noc([C@@H]2CCCN2C(=O)N[C@@H](CC(=O)O)C(=O)O)n1` [Compound 1, ((S)-2-(3-((S)-1-amino-2-(4-hydroxyphenyl)ethyl)-1,2,4-oxadiazol-5-yl)pyrrolidine-1-carbonyl)-L-aspartic acid], for which, in the assay with mPVR, the “Percent rescue … at 100 nM mPVR based assay” value was found to be 98%. Moreover, at PD-L1, the activation at 0.1 µM was found to be 17%.

Turning to `CC(O)[C@H](NC(=O)N[C@@H](Cc1cnc[nH]1)c1nc([C@@H](N)Cc2ccc(O)cc2)no1)C(=O)O` (stereo partly shown) [Compound 7], the activation at 0.1 µM on PD-L1 is 39%.

With `CC(O)[C@H](N)c1noc([C@H](Cc2ccccc2)NC(=O)N2CCC[C@H]2C(=O)O)n1` (stereo partly shown) [Compound 20], at PD-L1, the activation at 0.1 µM was 35%.

Take `CC(O)[C@H](NC(=O)NCc1nc([C@@H](N)CCC(=O)O)no1)C(=O)O` (stereo partly shown) [Compound 8]: in the assay with mPVR, the “Percent rescue … at 100 nM mPVR based assay” value was determined as 14.6%.
